According to PubChem BioAssay (NCI):
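Five concentrations, 48 hours, 96-well plates. GI50 marks 50% less growth. The concentration for full growth arrest is given as TGI.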

Key:
Experiment in all cases: inhibition of tumour cell growth, NCI panel, 48 h
SF-295 CNS = system: SF-295 CNS
NCI-H460 lung = system: NCI-H460 lung
RPMI-8226 leukemia = system: RPMI-8226 leukemia
786-0 renal = system: 786-0 renal
SF-268 CNS = system: SF-268 CNS
SK-MEL-5 melanoma = system: SK-MEL-5 melanoma
BT-549 breast = system: BT-549 breast
KM12 colon = system: KM12 colon
SNB-75 CNS = system: SNB-75 CNS
LOX IMVI melanoma = system: LOX IMVI melanoma
MOLT-4 leukemia = system: MOLT-4 leukemia
SR leukemia = system: SR leukemia
A498 renal = system: A498 renal
TK-10 renal = system: TK-10 renal
SN12C renal = system: SN12C renal
M14 melanoma = system: M14 melanoma
SK-MEL-28 melanoma = system: SK-MEL-28 melanoma
PC-3 prostate = system: PC-3 prostate
SW-620 colon = system: SW-620 colon
SNB-19 CNS = system: SNB-19 CNS
UACC-257 melanoma = system: UACC-257 melanoma
NCI-H226 lung = system: NCI-H226 lung
SF-539 CNS = system: SF-539 CNS
K-562 leukemia = system: K-562 leukemia
EKVX NSCLC = system: EKVX NSCLC
COLO 205 colon = system: COLO 205 colon
T-47D breast = system: T-47D breast
CAKI-1 renal = system: CAKI-1 renal
HS 578T breast = system: HS 578T breast
UO-31 renal = system: UO-31 renal
MCF7 breast = system: MCF7 breast
SK-OV-3 ovarian = system: SK-OV-3 ovarian
HCC-2998 colon = system: HCC-2998 colon
MDA-MB-231 breast = system: MDA-MB-231 breast
UACC-62 melanoma = system: UACC-62 melanoma
DU-145 prostate = system: DU-145 prostate
HCT-15 colon = system: HCT-15 colon
OVCAR-3 ovarian = system: OVCAR-3 ovarian
OVCAR-4 ovarian = system: OVCAR-4 ovarian
HOP-92 NSCLC = system: HOP-92 NSCLC
HOP-62 NSCLC = system: HOP-62 NSCLC
HCT-116 colon = system: HCT-116 colon
HT29 colon = system: HT29 colon
ACHN renal = system: ACHN renal
OVCAR-5 ovarian = system: OVCAR-5 ovarian
U251 CNS = system: U251 CNS
NCI/ADR-RES ovarian = system: NCI/ADR-RES ovarian
OVCAR-8 ovarian = system: OVCAR-8 ovarian
IGROV1 ovarian = system: IGROV1 ovarian
A549 NSCLC = system: A549 NSCLC
NCI-H522 lung = system: NCI-H522 lung
MALME-3M melanoma = system: MALME-3M melanoma
SK-MEL-2 melanoma = system: SK-MEL-2 melanoma
MDA-MB-435 = system: MDA-MB-435
RXF 393 renal = system: RXF 393 renal
HL-60(TB) leukemia = system: HL-60(TB) leukemia

N/C(=N\c1nc2c(Cl)cc(Cl)cc2s1)C(Cl)(Cl)Cl
GI50 (SF-295 CNS): 11.5 µM | TGI (SF-295 CNS): > 100 µM | GI50 (NCI-H460 lung): 3.63 µM | TGI (NCI-H460 lung): 18.2 µM | GI50 (RPMI-8226 leukemia): 17 µM | TGI (RPMI-8226 leukemia): > 100 µM | GI50 (786-0 renal): > 100 µM | TGI (786-0 renal): > 100 µM | GI50 (SF-268 CNS): 51.5 µM | TGI (SF-268 CNS): > 100 µM | GI50 (SK-MEL-5 melanoma): > 100 µM | TGI (SK-MEL-5 melanoma): > 100 µM | GI50 (BT-549 breast): 85.5 µM | TGI (BT-549 breast): > 100 µM | GI50 (KM12 colon): 5.8 µM | TGI (KM12 colon): 71.8 µM | GI50 (SNB-75 CNS): > 100 µM | TGI (SNB-75 CNS): > 100 µM | GI50 (LOX IMVI melanoma): 3.3 µM | TGI (LOX IMVI melanoma): 26.3 µM | GI50 (MOLT-4 leukemia): 34.6 µM | TGI (MOLT-4 leukemia): > 100 µM | GI50 (SR leukemia): 77.4 µM | TGI (SR leukemia): > 100 µM | GI50 (A498 renal): 15.3 µM | TGI (A498 renal): 29.4 µM | GI50 (TK-10 renal): 31.7 µM | TGI (TK-10 renal): > 100 µM | GI50 (SN12C renal): > 100 µM | TGI (SN12C renal): > 100 µM | GI50 (M14 melanoma): > 100 µM | TGI (M14 melanoma): > 100 µM | GI50 (SK-MEL-28 melanoma): 29.2 µM | TGI (SK-MEL-28 melanoma): > 100 µM | GI50 (PC-3 prostate): 12.9 µM | TGI (PC-3 prostate): 75.8 µM | GI50 (SW-620 colon): 48 µM | TGI (SW-620 colon): > 100 µM | GI50 (SNB-19 CNS): 19.4 µM | TGI (SNB-19 CNS): > 100 µM | GI50 (UACC-257 melanoma): 22.4 µM | TGI (UACC-257 melanoma): > 100 µM | GI50 (NCI-H226 lung): > 100 µM | TGI (NCI-H226 lung): > 100 µM | GI50 (SF-539 CNS): 17.2 µM | TGI (SF-539 CNS): > 100 µM | GI50 (K-562 leukemia): 55.3 µM | TGI (K-562 leukemia): > 100 µM | GI50 (EKVX NSCLC): 6.01 µM | TGI (EKVX NSCLC): 26.6 µM | GI50 (COLO 205 colon): 3.46 µM | TGI (COLO 205 colon): 16.2 µM | GI50 (T-47D breast): 5.4 µM | TGI (T-47D breast): > 100 µM | GI50 (CAKI-1 renal): 9.28 µM | TGI (CAKI-1 renal): > 100 µM | GI50 (HS 578T breast): 17.9 µM | TGI (HS 578T breast): > 100 µM | GI50 (UO-31 renal): 25.2 µM | TGI (UO-31 renal): > 100 µM | GI50 (MCF7 breast): 3.02 µM | TGI (MCF7 breast): > 100 µM | GI50 (SK-OV-3 ovarian): 35.4 µM | TGI (SK-OV-3 ovarian): > 100 µM | GI50 (HCC-2998 colon): 6.11 µM | TGI (HCC-2998 colon): 23.6 µM | GI50 (MDA-MB-231 breast): 38.3 µM | TGI (MDA-MB-231 breast): > 100 µM | GI50 (UACC-62 melanoma): 26.7 µM | TGI (UACC-62 melanoma): > 100 µM | GI50 (DU-145 prostate): 3.11 µM | TGI (DU-145 prostate): 15.8 µM | GI50 (HCT-15 colon): 53.2 µM | TGI (HCT-15 colon): > 100 µM | GI50 (OVCAR-3 ovarian): 5.57 µM | TGI (OVCAR-3 ovarian): 35.4 µM | GI50 (OVCAR-4 ovarian): 41 µM | TGI (OVCAR-4 ovarian): > 100 µM | GI50 (HOP-92 NSCLC): 2.89 µM | TGI (HOP-92 NSCLC): 25.8 µM | GI50 (HOP-62 NSCLC): 5.62 µM | TGI (HOP-62 NSCLC): 24.6 µM | GI50 (HCT-116 colon): 28.1 µM | TGI (HCT-116 colon): > 100 µM | GI50 (HT29 colon): 5.21 µM | TGI (HT29 colon): 29.7 µM | GI50 (ACHN renal): 3.59 µM | TGI (ACHN renal): 22.2 µM | GI50 (OVCAR-5 ovarian): 45.2 µM | TGI (OVCAR-5 ovarian): > 100 µM | GI50 (U251 CNS): 6.63 µM | TGI (U251 CNS): 96.6 µM | GI50 (NCI/ADR-RES ovarian): 88.6 µM | TGI (NCI/ADR-RES ovarian): > 100 µM | GI50 (OVCAR-8 ovarian): > 100 µM | TGI (OVCAR-8 ovarian): > 100 µM | GI50 (IGROV1 ovarian): 55.8 µM | TGI (IGROV1 ovarian): > 100 µM | GI50 (A549 NSCLC): 5.65 µM | TGI (A549 NSCLC): 19.4 µM | GI50 (NCI-H522 lung): > 100 µM | TGI (NCI-H522 lung): > 100 µM | GI50 (MALME-3M melanoma): > 100 µM | TGI (MALME-3M melanoma): > 100 µM | GI50 (SK-MEL-2 melanoma): > 100 µM | TGI (SK-MEL-2 melanoma): > 100 µM | GI50 (MDA-MB-435): 61.3 µM | TGI (MDA-MB-435): > 100 µM | GI50 (RXF 393 renal): 12.5 µM | TGI (RXF 393 renal): > 100 µM | GI50 (HL-60(TB) leukemia): 4.91 µM | TGI (HL-60(TB) leukemia): > 100 µM
